# In paper PMC4468608, “A distinct p53 target gene set predicts for response to the selective p53–HDM2 inhibitor NVP-CGM097” (eLife, 2015):
# Like-named read-outs stand apart in the source and are kept apart here.
# System: cell lines from the Cancer Cell Line Encyclopedia (CCLE)
# Test: High-throughput cell viability assay, CCLE cell line panel (n = 356)
# Assay type: cell-based, human
# Conditions: Homo sapiens
# Method: Cell lines were partitioned into sensitive and insensitive groups based on compound potency (IC50). […] All other cell lines were obtained from ATCC (American Type Culture Collection), DSMZ (Deutsche Sammlung von Mikroorganismen und Zellkulturen), and HSRRB (Health Science Research Resources Bank) and cultured in RPMI or Dulbecco's modified Eagle's medium plus 10% FBS (Invitrogen, Carlsbad, CA) at 37°C, 5% CO2.
compound,measurement,setting,value
COc1cc2c(cc1OC(C)C)[C@H](c1ccc(Cl)cc1)N(c1ccc(N(C)C[C@H]3CC[C@H](N4CCNC(=O)C4)CC3)cc1)C(=O)C2 [NVP-CFC218],IC50,"PC-3, TP53 MUT",> 8 µM
same,IC50,"PC-14, PC-14, TP53 MUT",> 8 µM
same,IC50,"PE/CA-PJ34 (clone C12), TP53 MUT",> 8 µM
same,IC50,"PE/CA-PJ49, TP53 WT",> 8 µM
same,IC50,"PK-1, TP53 MUT",> 8 µM
same,IC50,"PK-45H, TP53 WT",> 8 µM
same,IC50,"PL-21, PL-21, TP53 MUT",> 8 µM
same,IC50,"PSN1, PSN1, TP53 MUT",> 8 µM
same,IC50,"PaTu 8902, PA-TU-8902, TP53 MUT",> 8 µM
same,IC50,"Panc 04.03, Panc 04.03, TP53 MUT",> 8 µM
same,IC50,"QGP-1, QGP-1, TP53 WT",> 8 µM
same,IC50,"RCM-1, RCM-1, TP53 MUT",> 8 µM
same,IC50,"RERF-GC-1B, TP53 MUT",> 8 µM
same,IC50,"RERF-LC-AI, TP53 WT",> 8 µM
same,IC50,"RERF-LC-MS, TP53 MUT",> 8 µM
same,IC50,"RKO, TP53 WT",6.44 µM
same,IC50,"RPMI 8402, RPMI-8402, TP53 MUT",> 8 µM
same,IC50,"RT-112, RT-112, TP53 MUT",> 8 µM
same,IC50,"Raji, TP53 MUT",> 8 µM
same,IC50,"Reh, TP53 WT",2.63 µM
same,IC50,"S-117, S-117, TP53 MUT",> 8 µM
same,IC50,"SBC-5, SBC-5, TP53 MUT",> 8 µM
same,IC50,"SCC-4, SCC-4, TP53 MUT",> 8 µM
same,IC50,"SCC-9, SCC-9, TP53 MUT",> 8 µM
same,IC50,"SCC-25, SCC-25, TP53 MUT",> 8 µM
same,IC50,"SCaBER, read-out: NVP- CFC218 IC50 (µM), cell line SCaBER, urinary_tract, TP53 MUT",> 8 µM
same,IC50,"SF-295, SF-295, TP53 MUT",> 8 µM
same,IC50,"SH-10-TC, TP53 MUT",> 8 µM
same,IC50,"SHP77, SHP-77, TP53 MUT",> 8 µM
same,IC50,"SJRH30, SJRH30, TP53 MUT",> 8 µM
same,IC50,"SK-BR-3, SK-BR-3, TP53 MUT",> 8 µM
same,IC50,"SK-HEP1, read-out: NVP- CFC218 IC50 (µM), cell line SK-HEP-1, liver, TP53 WT",> 8 µM
same,IC50,"SK-LMS-1, SK-LMS-1, TP53 MUT",> 8 µM
same,IC50,"SK-LU-1, SK-LU-1, TP53 MUT",> 8 µM
same,IC50,"SK-MEL-5, read-out: NVP- CFC218 IC50 (µM), cell line SK-MEL-5, skin, TP53 WT",> 8 µM
same,IC50,"SK-MEL-24, read-out: NVP- CFC218 IC50 (µM), cell line SK-MEL-24, skin, TP53 WT",> 8 µM
same,IC50,"SK-MEL-30, SK-MEL-30, TP53 MUT",> 8 µM
same,IC50,"SK-MES-1, SK-MES-1, TP53 MUT",> 8 µM
same,IC50,"SK-N-AS, TP53 WT",> 8 µM
same,IC50,"SK-N-FI, TP53 MUT",> 8 µM
same,IC50,"SK-OV-3, SK-OV-3, TP53 MUT",> 8 µM
same,IC50,"SNU-182, SNU-182, TP53 MUT",> 8 µM
same,IC50,"SNU-423, read-out: NVP- CFC218 IC50 (µM), cell line SNU-423, liver, TP53 MUT",> 8 µM
same,IC50,"SNU-475, SNU-475, TP53 MUT",> 8 µM
same,IC50,"SU-DHL-4, SU-DHL-4, TP53 MUT",> 8 µM
same,IC50,"SU-DHL-8, SU-DHL-8, TP53 MUT",> 8 µM
same,IC50,"SUP-M2, SUP-M2, TP53 WT",1.01 µM
same,IC50,"SW480, SW480, TP53 MUT",> 8 µM
same,IC50,"SW579, SW579, TP53 MUT",> 8 µM
same,IC50,"SW780, read-out: NVP- CFC218 IC50 (µM), cell line SW 780, urinary_tract, TP53 WT",> 8 µM
same,IC50,"SW900, SW 900, TP53 MUT",> 8 µM
same,IC50,"SW1271, SW 1271, TP53 MUT",> 8 µM
same,IC50,"SW1353, SW 1353, TP53 MUT",4.91 µM
same,IC50,"SW1417, SW1417, TP53 MUT",> 8 µM
same,IC50,"SW1573, read-out: NVP- CFC218 IC50 (µM), cell line SW 1573, lung, TP53 WT",> 8 µM
same,IC50,"SW1783, SW 1783, TP53 MUT",> 8 µM
same,IC50,"SW1990, SW 1990, TP53 MUT",> 8 µM
same,IC50,"SW-403, read-out: NVP- CFC218 IC50 (µM), cell line SW403, large_intestine, TP53 MUT",> 8 µM
same,IC50,"T98G, TP53 MUT",> 8 µM
same,IC50,"TE 617.T, TP53 WT",2.91 µM
same,IC50,"TE-1, TP53 MUT",> 8 µM
same,IC50,"TE-5, TP53 MUT",> 8 µM
same,IC50,"TE-11, read-out: NVP- CFC218 IC50 (µM), cell line TE-11, oesophagus, TP53 MUT",> 8 µM
same,IC50,"TOV21G, TOV-21G, TP53 WT",5.41 µM
same,IC50,"TT2609-C02, TP53 MUT",> 8 µM
same,IC50,"U-87 MG, TP53 WT",> 8 µM
same,IC50,"U-937, U-937, TP53 MUT",> 8 µM
same,IC50,"UMUC3, read-out: NVP- CFC218 IC50 (µM), cell line UM-UC-3, urinary_tract, TP53 MUT",> 8 µM
same,IC50,"VMRC-RCZ, TP53 WT",> 8 µM
same,IC50,"WM 266-4, WM-266-4, TP53 WT",1.46 µM
same,IC50,"WM983B, WM-983B, TP53 MUT",> 8 µM
same,IC50,"WM-115, WM-115, TP53 WT",3.38 µM
same,IC50,"WSUDLCL2, WSU-DLCL2, TP53 MUT",> 8 µM
same,IC50,"YKG-1, YKG1, TP53 MUT",> 8 µM
same,IC50,"read-out: NVP- CFC218 IC50 (µM), cell line BICR 31, upper_aerodigestive_tract, TP53 MUT",> 8 µM
same,IC50,"read-out: NVP- CFC218 IC50 (µM), cell line C3A, liver, TP53 WT",> 8 µM
same,IC50,"read-out: NVP- CFC218 IC50 (µM), cell line C32, skin, TP53 WT",> 8 µM
same,IC50,"read-out: NVP- CFC218 IC50 (µM), cell line CCK-81, large_intestine, TP53 MUT",> 8 µM
same,IC50,"read-out: NVP- CFC218 IC50 (µM), cell line ES-2, ovary, TP53 MUT",> 8 µM
same,IC50,"read-out: NVP- CFC218 IC50 (µM), cell line HEC-108, endometrium, TP53 MUT",> 8 µM
same,IC50,"read-out: NVP- CFC218 IC50 (µM), cell line HEC-265, endometrium, TP53 WT",> 8 µM
same,IC50,"read-out: NVP- CFC218 IC50 (µM), cell line Hs 618.T, lung, TP53 WT",> 8 µM
same,IC50,"read-out: NVP- CFC218 IC50 (µM), cell line Hs 888.T, bone, TP53 WT",> 8 µM
same,IC50,"read-out: NVP- CFC218 IC50 (µM), cell line Hs 944.T, skin, TP53 WT",> 8 µM
same,IC50,"read-out: NVP- CFC218 IC50 (µM), cell line JHOS-2, ovary, TP53 MUT",> 8 µM
